Data taken from US8470607B2, “Inhibition of angiogenesis” (Morphotek, Inc., priority 2008, dated 2013).

Test system: VEGF-stimulated angiogenesis
Assay: CAM assay of VEGF-stimulated angiogenesis: intravenous TM-601, comparison and combination with Avastin and Lucentis
Type: in vivo, chick
Conditions: for relative potency of inhibition of VEGF-stimulated angiogenesis, molar basis: TM-601, Avastin and Lucentis compared on a molar basis
Protocol: The CAM assay was performed using two different methods, depending on the contract laboratory where it was performed. At one contract laboratory, fertilized chick eggs were incubated at 37° C. with 55% humidity. Ten days after fertilization, a small hole was punctured with a hypodermic needle in the area of the shell concealing the air sac. A second hole was punctured in the shell on the broadside of the egg directly over an avascular portion of the embryonic membrane. A false air sac was created beneath the second hold by the application of negative pressure to the first hole, which caused the membrane to separate from the shell. A window approximately 1.0 cm^2 in area was cut in the shell over the dropped CAM with the use of a small grinding wheel, allowing direct access to the underlying CAM. Filter disks were soaked in 3 mg/mL rtisone acetate and subsequently air dried under sterile conditions. […] Sterile filter disks with VEGF at 2 μg/mL were placed on the growing CAMs. […] CAMs were harvested on the 3rd day of stimulation. The CAM tissue directly beneath the filter disk was removed from the embryos and tissues were washed three times with PBS. Blood vessel branch points in the 5 m filter disk area were counted at 30× magnification as a quantitative indicator of vascular sprouting in response to the pro-angiogenic compounds. Each egg was analyzed by two different operators and the average reading was reported. The following equation was used to calculate the mean percent angiogenesis inhibition with VEGF-stimulation:
At the second contract laboratory, the CAM assay was performed as follows. Fertilized chicken eggs were incubated at 37.5° C. in a humidified egg incubator with forced air circulation. […] On embryonic day 7, the CAM membranes were examined and quantitatively analyzed for new blood vessel formation after injection of dyed non-fat dry milk solution. The treatment effects on angiogenesis were evaluated by determining vascular density indexed (VDI) on CAMs only with viable chicken embryos. […]

Row | Substance | relative potency of inhibition of VEGF-stimulated angiogenesis, molar basis | relative potency of inhibition of VEGF-stimulated angiogenesis, by weight of inhibitor (TM-601, Avastin and Lucentis compared on a mass basis)
1 | bevacizumab [Avastin] | more effective than TM-601 | –
2 | ranabizumab [Lucentis] | more effective than TM-601 | most potent
